Assay results reported in US9051311B2, “Sulfamide sodium channel inhibitors” (AMGEN INC., priority 2012, dated 2015).
Counter-ions that a name gives are not always drawn.

Experiments:
Nav 1.7 [1] = target: T1, Nav 1.7 (Homo sapiens (Human), UniProt Q15858); test: Nav 1.7 IonWorks Quattro (IWQ) in vitro assay, population patch-clamp; type: cell-based; details: 293 cells stably transfected with Nav 1.7; block at 26th pulse to −20 mV;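 also: cells held at −110 mV for 3 s, then 26 pulses of 150 ms at 5 Hz, leak-corrected peak current, percent block measured before and after compound, 3–8 min exposure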
T1 sequence (Q15858 whole entry): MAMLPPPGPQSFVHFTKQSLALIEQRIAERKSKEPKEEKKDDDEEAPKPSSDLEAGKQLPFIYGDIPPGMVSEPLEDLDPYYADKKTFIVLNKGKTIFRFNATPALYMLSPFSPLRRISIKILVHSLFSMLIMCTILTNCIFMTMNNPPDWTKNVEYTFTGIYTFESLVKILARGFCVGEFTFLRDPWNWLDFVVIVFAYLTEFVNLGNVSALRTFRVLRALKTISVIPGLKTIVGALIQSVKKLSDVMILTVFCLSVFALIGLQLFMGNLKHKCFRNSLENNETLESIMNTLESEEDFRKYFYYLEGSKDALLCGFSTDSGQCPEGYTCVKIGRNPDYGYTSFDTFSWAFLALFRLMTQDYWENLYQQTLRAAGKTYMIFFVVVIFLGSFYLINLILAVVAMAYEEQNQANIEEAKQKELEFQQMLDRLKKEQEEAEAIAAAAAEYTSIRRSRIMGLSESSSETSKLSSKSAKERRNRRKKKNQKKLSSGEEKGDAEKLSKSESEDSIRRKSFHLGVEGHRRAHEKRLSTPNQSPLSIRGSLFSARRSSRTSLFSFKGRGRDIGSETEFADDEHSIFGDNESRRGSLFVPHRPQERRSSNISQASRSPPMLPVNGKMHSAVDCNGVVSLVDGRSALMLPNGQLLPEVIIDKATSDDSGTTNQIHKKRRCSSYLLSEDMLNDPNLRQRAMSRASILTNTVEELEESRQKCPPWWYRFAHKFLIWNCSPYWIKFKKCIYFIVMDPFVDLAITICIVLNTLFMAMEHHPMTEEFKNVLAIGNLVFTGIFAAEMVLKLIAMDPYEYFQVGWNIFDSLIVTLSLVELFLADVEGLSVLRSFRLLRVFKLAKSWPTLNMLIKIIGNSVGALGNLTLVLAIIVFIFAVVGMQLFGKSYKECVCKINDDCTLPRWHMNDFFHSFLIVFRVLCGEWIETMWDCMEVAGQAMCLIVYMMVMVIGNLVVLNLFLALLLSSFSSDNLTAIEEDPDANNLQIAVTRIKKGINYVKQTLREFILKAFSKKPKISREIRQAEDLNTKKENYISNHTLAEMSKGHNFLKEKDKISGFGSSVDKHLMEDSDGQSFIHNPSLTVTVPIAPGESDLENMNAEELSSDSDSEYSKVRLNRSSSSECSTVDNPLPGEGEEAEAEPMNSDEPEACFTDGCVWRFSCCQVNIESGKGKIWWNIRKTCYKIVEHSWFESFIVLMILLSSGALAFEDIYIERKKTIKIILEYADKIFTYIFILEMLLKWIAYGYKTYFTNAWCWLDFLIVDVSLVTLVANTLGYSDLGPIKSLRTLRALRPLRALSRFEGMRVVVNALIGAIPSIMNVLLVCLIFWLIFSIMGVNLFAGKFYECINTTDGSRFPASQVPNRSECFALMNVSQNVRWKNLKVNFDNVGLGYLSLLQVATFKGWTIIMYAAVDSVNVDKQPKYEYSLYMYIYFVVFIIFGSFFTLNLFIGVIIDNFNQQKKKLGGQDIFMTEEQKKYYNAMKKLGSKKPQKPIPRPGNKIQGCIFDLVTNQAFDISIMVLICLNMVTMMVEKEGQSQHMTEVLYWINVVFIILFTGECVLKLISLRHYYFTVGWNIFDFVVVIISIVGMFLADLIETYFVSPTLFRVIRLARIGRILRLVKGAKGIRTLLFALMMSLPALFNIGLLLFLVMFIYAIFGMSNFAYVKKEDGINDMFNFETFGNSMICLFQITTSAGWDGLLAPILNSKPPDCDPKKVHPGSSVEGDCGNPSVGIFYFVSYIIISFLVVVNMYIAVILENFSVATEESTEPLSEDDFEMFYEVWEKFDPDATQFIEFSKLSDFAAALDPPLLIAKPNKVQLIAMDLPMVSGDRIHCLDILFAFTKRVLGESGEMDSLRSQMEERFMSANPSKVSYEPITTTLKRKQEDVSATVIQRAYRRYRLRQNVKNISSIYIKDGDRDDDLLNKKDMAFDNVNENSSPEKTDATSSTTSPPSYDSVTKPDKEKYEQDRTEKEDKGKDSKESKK
Experimental: (§1) Nav 1.7 and Nav 1.5 Ion Works Quattro (IWQ) In Vitro Assays
(§2) 293 cells stably transfected with either Nav 1.7 or with Nav 1.5 were recorded in population patch-clamp mode with the IonWorks® Quattro automated electrophysiology system in accordance with the manufacturer's specifications (Molecular Devices, LLC, Sunnyvale, Calif.). Sodium channel currents were measured in response to a train of depolarizations that induced successively greater inactivation.
(§3) Cells were held at −110 mV for three seconds (Nav 1.7) or half a second (Nav 1.5) from a holding voltage of −15 mV, then put through a series of 26 pulses of 150 msec duration to −20 mV at a frequency of 5 Hz. Cells were then left unclamped for a period of 3 to 8 minutes while a single concentration of test compound was added. Cells were then reclamped and put through the same voltage protocol. Current at the end of the 26th pulse to −20 mV was subtracted from the peak current evoked by the 26th pulse to −20 mV to correct for leak current. Percent block was calculated for each concentration in duplicate, and IC50 curves were fitted to percent block as a function of concentration.

Nav 1.7 [2] = target: T1, Nav 1.7; test: Nav 1.7 in vitro PatchExpress (PX) assay, whole cell voltage clamp; type: cell-based; details: 293 cells stably transfected with human Nav1.7; partially inactivated state (20 to 50% inactivation)
Experimental: Nav 1.7 In Vitro PatchExpress (PX) Assay
293 cells stably transfected with human Nav1.7 were recorded in whole cell voltage clamp mode with the PatchXpress automated electrophysiology system (Molecular Devices, LLC, Sunnyvale, Calif.). Compound effects were measured on a partially inactivated state of the sodium channel. Cells were clamped to a holding potential yielding 20 to 50% inactivation. To elicit sodium current, channels were activated by pulsing to −10 mV for 20 msec. This voltage protocol was repeated at a rate of 0.1 Hz throughout the experiment. A single concentration of test compound was applied to cells for a duration of 3 minutes. Peak sodium current was measured at the end of the compound addition period to determine percent inhibition.

Nav 1.5 = Nav 1.5 (Homo sapiens (Human), UniProt Q14524); test: cell-based;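 also: HEK293 cells stably expressing Nav1.5, sodium current at the 26th of 26 pulses to −20 mV (150 ms, 5 Hz) after compound versus before, leak-corrected, 3–8 min exposure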
Chain of Nav 1.5 (Q14524 whole entry): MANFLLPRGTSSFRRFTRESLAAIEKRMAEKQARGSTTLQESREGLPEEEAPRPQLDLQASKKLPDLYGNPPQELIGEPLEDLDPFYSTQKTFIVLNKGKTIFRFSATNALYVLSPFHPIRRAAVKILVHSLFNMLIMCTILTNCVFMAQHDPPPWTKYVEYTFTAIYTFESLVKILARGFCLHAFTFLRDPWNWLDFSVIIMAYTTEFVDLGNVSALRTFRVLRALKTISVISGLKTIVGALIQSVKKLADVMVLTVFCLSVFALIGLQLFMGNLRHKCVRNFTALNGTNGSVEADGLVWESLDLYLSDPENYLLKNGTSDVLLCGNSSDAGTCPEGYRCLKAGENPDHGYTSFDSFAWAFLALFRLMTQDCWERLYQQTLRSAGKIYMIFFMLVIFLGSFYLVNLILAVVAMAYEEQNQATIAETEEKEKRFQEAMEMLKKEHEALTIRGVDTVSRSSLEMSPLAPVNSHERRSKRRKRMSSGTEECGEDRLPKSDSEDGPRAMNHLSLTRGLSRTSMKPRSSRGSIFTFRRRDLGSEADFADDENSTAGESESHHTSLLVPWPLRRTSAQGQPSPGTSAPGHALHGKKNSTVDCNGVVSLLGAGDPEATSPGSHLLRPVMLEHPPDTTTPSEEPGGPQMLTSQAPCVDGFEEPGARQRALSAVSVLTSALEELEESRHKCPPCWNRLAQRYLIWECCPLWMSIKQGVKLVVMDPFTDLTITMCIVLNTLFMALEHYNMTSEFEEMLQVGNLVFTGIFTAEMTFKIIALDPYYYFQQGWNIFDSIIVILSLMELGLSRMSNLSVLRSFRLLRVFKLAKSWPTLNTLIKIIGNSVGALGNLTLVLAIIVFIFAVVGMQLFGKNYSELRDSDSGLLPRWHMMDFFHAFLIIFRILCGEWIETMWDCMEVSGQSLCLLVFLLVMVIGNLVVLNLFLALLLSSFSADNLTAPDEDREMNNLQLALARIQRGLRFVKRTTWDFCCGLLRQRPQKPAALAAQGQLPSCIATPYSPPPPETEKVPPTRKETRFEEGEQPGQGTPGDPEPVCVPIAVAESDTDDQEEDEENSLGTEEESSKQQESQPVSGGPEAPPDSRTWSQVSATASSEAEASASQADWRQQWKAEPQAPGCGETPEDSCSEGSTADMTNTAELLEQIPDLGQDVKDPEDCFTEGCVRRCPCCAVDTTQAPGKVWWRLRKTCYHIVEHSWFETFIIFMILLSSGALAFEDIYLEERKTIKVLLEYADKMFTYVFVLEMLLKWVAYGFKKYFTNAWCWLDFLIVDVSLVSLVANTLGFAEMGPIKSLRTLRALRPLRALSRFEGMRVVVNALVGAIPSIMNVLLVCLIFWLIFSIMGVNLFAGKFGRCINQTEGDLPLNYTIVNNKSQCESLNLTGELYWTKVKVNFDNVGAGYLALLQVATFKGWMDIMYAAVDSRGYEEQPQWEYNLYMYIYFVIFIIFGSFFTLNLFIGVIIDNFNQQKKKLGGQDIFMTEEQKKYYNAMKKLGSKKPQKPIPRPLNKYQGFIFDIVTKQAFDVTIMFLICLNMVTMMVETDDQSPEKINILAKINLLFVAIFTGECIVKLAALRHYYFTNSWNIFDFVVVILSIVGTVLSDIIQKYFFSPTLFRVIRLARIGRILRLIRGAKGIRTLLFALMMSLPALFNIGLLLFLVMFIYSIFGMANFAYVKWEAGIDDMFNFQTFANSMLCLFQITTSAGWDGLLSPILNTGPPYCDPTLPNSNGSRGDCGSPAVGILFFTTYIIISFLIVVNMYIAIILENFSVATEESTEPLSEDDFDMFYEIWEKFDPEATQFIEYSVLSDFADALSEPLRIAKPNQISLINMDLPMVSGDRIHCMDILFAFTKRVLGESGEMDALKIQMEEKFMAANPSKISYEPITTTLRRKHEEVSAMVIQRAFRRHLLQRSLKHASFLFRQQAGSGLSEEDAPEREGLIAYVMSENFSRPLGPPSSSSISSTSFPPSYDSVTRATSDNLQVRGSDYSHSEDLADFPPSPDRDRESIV
Experimental: as §1, §2, §3

| SMILES | IC50 (Nav 1.7 [1]) [µM] | IC50 (Nav 1.7 [2]) [µM] | IC50 (Nav 1.5) [µM] |
| --- | --- | --- | --- |
| COc1cc(C(F)(F)F)ccc1-c1cccc2c1C(C)CN(S(=O)(=O)Nc1ncns1)C2 (racemic) [Example 48, 5-(2-Methoxy-4-(trifluoromethyl)phenyl)-4-methyl-N-(1,2,4-thiadiazol-5-yl)-3,4-dihydroisoquinoline-2(1H)-sulfonamide] | 4.1 | 6.11 | 7.26 |
| Cn1nccc1-c1cc(C(F)(F)F)ccc1-c1cccc2c1CCN(S(=O)(=O)Nc1ncns1)C2 [Example 1, 5-(2-(1-Methyl-1H-pyrazol-5-yl)-4-(trifluoromethyl)phenyl)-N-(1,2,4-thiadiazol-5-yl)-3,4-dihydroisoquinoline-2(1H)-sulfonamide] | 0.0363 | 0.12 | > 10 |
| O=S(=O)(Nc1ncns1)N1CCc2c(cccc2-c2ccc(C(F)(F)F)cc2-c2ccncc2)C1 [Example 2, 5-(2-(Pyridin-4-yl)-4-(trifluoromethyl)phenyl)-N-(1,2,4-thiadiazol-5-yl)-3,4-dihydroisoquinoline-2(1H)-sulfonamide] | 0.217 | 0.64 | > 10 |
| Cn1nccc1-c1cc(C(F)(F)F)ccc1-c1cccc2c1CCN(S(=O)(=O)Nc1nccs1)C2 [Example 3, 5-(2-(1-methyl-1H-pyrazol-5-yl)-4-(trifluoromethyl)phenyl)-N-(thiazol-2-yl)-3,4-dihydroisoquinoline-2(1H)-sulfonamide] | 0.414 | 2.01 | > 10 |
| O=S(=O)(Nc1ncns1)N1CCc2c(cccc2-c2ccc(C(F)(F)F)cc2Br)C1 [Example 4, 5-(2-Bromo-4-(trifluoromethyl)phenyl)-N-(1,2,4-thiadiazol-5-yl)-3,4-dihydroisoquinoline-2(1H)-sulfonamide] | 0.527 | 0.56 | > 10 |
| O=S(=O)(Nc1ncns1)N1CCc2c(cccc2-c2ccc(C(F)(F)F)cc2)C1 [Example 7, N-(1,2,4-Thiadiazol-5-yl)-5-(4-(trifluoromethyl)phenyl)-3,4-dihydroisoquinoline-2(1H)-sulfonamide] | 1.64 | 5.8 | > 10 |
| O=S(=O)(Nc1ncns1)N1CCc2c(cccc2-c2ccc(C(F)(F)F)cc2F)C1 [Example 8, 5-(2-Fluoro-4-(trifluoromethyl)phenyl)-N-(1,2,4-thiadiazol-5-yl)-3,4-dihydroisoquinoline-2(1H)-sulfonamide] | 1.84 | 3.13 | > 10 |
| O=S(=O)(Nc1ncns1)N1CCc2c(cccc2-c2ccc(C(F)(F)F)cc2Cl)C1 [Example 9, 5-(2-Chloro-4-(trifluoromethyl)phenyl)-N-(1,2,4-thiadiazol-5-yl)-3,4-dihydroisoquinoline-2(1H)-sulfonamide] | 0.477 | 0.61 | > 10 |
| O=S(=O)(Nc1ncns1)N1CCc2c(cccc2-c2ccc(Cl)cc2)C1 [Example 10] | 5.47 | 7.46 | > 10 |
| O=S(=O)(Nc1ncns1)N1CCc2c(cccc2-c2ccc(Cl)cc2Cl)C1 [Example 12, 5-(2,4-Dichlorophenyl)-N-(1,2,4-thiadiazol-5-yl)-3,4-dihydroisoquinoline-2(1H)-sulfonamide] | 2.41 | 1.33 | > 10 |
| O=S(=O)(Nc1ncns1)N1CCc2c(cccc2-c2cccc3c2CCNC3)C1 [Example 13, N-(1,2,4-Thiadiazol-5-yl)-1′,2′,3,3′,4,4′-hexahydro-[5,5′-biisoquinoline]-2(1H)-sulfonamide hydrochloride] | 3.87 | > 30 | > 10 |
| C[N+]1(C)CC=C(c2cc(C(F)(F)F)ccc2-c2cccc3c2CCN(S(=O)(=O)Nc2ncns2)C3)CC1 [Example 14, 4-(2-(2-(N-(1,2,4-Thiadiazol-5-yl)sulfamoyl)-1,2,3,4-tetrahydroisoquinolin-5-yl)-5-(trifluoromethyl)phenyl)-1,1-dimethyl-1,2,3,6-tetrahydropyridin-1-ium hydroxide] | 0.684 | 3.53 | > 10 |
| CN1CC=C(c2cc(C(F)(F)F)ccc2-c2cccc3c2CCN(S(=O)(=O)Nc2ncns2)C3)CC1 [Example 15, 5-(2-(1-Methyl-1,2,3,6-tetrahydropyridin-4-yl)-4-(trifluoromethyl)phenyl)-N-(1,2,4-thiadiazol-5-yl)-3,4-dihydroisoquinoline-2(1H)-sulfonamide] | 0.0783 | 0.09 | > 10 |
| Cn1cc(-c2cc(C(F)(F)F)ccc2-c2cccc3c2CCN(S(=O)(=O)Nc2ncns2)C3)cn1 [Example 16, 5-(2-(1-Methyl-1H-pyrazol-4-yl)-4-(trifluoromethyl)phenyl)-N-(1,2,4-thiadiazol-5-yl)-3,4-dihydroisoquinoline-2(1H)-sulfonamide] | 2.66 | 5.42 | > 10 |
| O=S(=O)(Nc1ncns1)N1CCc2c(cccc2-c2ccc(C(F)(F)F)cc2-c2cn[nH]c2)C1 [Example 17, 5-(2-(1H-Pyrazol-4-yl)-4-(trifluoromethyl)phenyl)-N-(1,2,4-thiadiazol-5-yl)-3,4-dihydroisoquinoline-2(1H)-sulfonamide] | 0.157 | 0.35 | > 10 |
| Nc1cc(-c2cc(C(F)(F)F)ccc2-c2cccc3c2CCN(S(=O)(=O)Nc2ncns2)C3)ccn1 [Example 18, 5-(2-(2-Aminopyridin-4-yl)-4-(trifluoromethyl)phenyl)-N-(1,2,4-thiadiazol-5-yl)-3,4-dihydroisoquinoline-2(1H)-sulfonamide] | 0.0453 | 0.07 | > 10 |
| COc1cncc(-c2cc(C(F)(F)F)ccc2-c2cccc3c2CCN(S(=O)(=O)Nc2ncns2)C3)c1 [Example 20, 5-(2-(5-Methoxypyridin-3-yl)-4-(trifluoromethyl)phenyl)-N-(1,2,4-thiadiazol-5-yl)-3,4-dihydroisoquinoline-2(1H)-sulfonamide] | 5.83 | – | > 10 |
| Cc1cncc(-c2cc(C(F)(F)F)ccc2-c2cccc3c2CCN(S(=O)(=O)Nc2ncns2)C3)c1 [Example 21, 5-(2-(5-Methylpyridin-3-yl)-4-(trifluoromethyl)phenyl)-N-(1,2,4-thiadiazol-5-yl)-3,4-dihydroisoquinoline-2(1H)-sulfonamide] | 1.8 | – | 4.08 |
| O=S(=O)(Nc1ncns1)N1CCc2c(cccc2-c2cncc3ccccc23)C1 [Example 25, N-(1,2,4-Thiadiazol-5-yl)-3′,4′-dihydro-[4,5′-biisoquinoline]-2′(1′H)-sulfonamide] | 6.9 | – | > 10 |
| COc1ncccc1-c1cccc2c1CCN(S(=O)(=O)Nc1ncns1)C2 [Example 50, 5-(2-Methoxypyridin-3-yl)-N-(1,2,4-thiadiazol-5-yl)-3,4-dihydroisoquinoline-2(1H)-sulfonamide] | 7.6 | – | > 10 |
| O=S(=O)(Nc1ncns1)N1CCc2c(cccc2-c2cccc3[nH]ncc23)C1 [Example 51, 5-(1H-Indazol-4-yl)-N-(1,2,4-thiadiazol-5-yl)-3,4-dihydroisoquinoline-2(1H)-sulfonamide] | 19.1 | – | > 10 |
| CN1CC=C(c2cc(Cl)cc(F)c2-c2cccc3c2CCN(S(=O)(=O)Nc2ncc(F)s2)C3)CC1 [Example 54, 5-(4-Chloro-2-fluoro-6-(1-methyl-1,2,3,6-tetrahydropyridin-4-yl)phenyl)-N-(5-fluorothiazol-2-yl)-3,4-dihydroisoquinoline-2(1H)-sulfonamide] | 14.9 | – | > 10 |
| COc1cc(C(F)(F)F)ccc1-c1cccc2c1CN(S(=O)(=O)Nc1ncns1)CC2 [Example 55, 8-(2-Methoxy-4-(trifluoromethyl)phenyl)-N-(1,2,4-thiadiazol-5-yl)-3,4-dihydroisoquinoline-2(1H)-sulfonamide] | 9.44 | – | > 10 |
| CC(C)(C)OC(=O)N1CC=C(c2cccc3c2CCN(S(=O)(=O)Nc2ncns2)C3)CC1 [Example 57, tert-Butyl 4-(2-(N-(1,2,4-thiadiazol-5-yl)sulfamoyl)-1,2,3,4-tetrahydroisoquinolin-5-yl)-5,6-dihydropyridine-1(2H)-carboxylate] | 7.1 | – | > 10 |
| COc1cc(C(F)(F)F)ccc1-c1ncnc2c1CCN(S(=O)(=O)Nc1ncc(F)s1)C2 [Example 60, N-(5-fluorothiazol-2-yl)-4-(2-methoxy-4-(trifluoromethyl)phenyl)-5,6-dihydropyrido[3,4-d]pyrimidine-7(8H)-sulfonamide] | – | 0.81 | – |
| COc1cc(-c2ccc(F)c(F)c2)ccc1-c1cccc2c1CCN(S(=O)(=O)Nc1nncs1)C2 [Example 62, 5-(3′,4′-difluoro-3-methoxy-[1,1′-biphenyl]-4-yl)-N-(1,3,4-thiadiazol-2-yl)-3,4-dihydroisoquinoline-2(1H)-sulfonamide] | – | 8.05 | – |
| COc1ccc(-c2ccc(F)c(F)c2)cc1-c1cccc2c1CCN(S(=O)(=O)Nc1nncs1)C2 [Example 63, 5-(3′,4′-difluoro-4-methoxy-[1,1′-biphenyl]-3-yl)-N-(1,3,4-thiadiazol-2-yl)-3,4-dihydroisoquinoline-2(1H)-sulfonamide] | – | 11.2 | – |
| COc1cc(C(F)(F)F)ccc1-c1ccnc2c1CCN(S(=O)(=O)Nc1ccncn1)C2 [Example 64, 4-(2-methoxy-4-(trifluoromethyl)phenyl)-N-4-pyrimidinyl-5,8-dihydro-1,7-naphthyridine-7(6H)-sulfonamide] | – | 6.19 | – |
